Laboratory results published in patent publication US20050113318A1, “Combination of dehydroepiandrosterone or dehydroepiandrosterone-sulfate with a beta-agonist bronchodilator for treatment of asthma or chronic obstructive pulmonary disease” (priority 2003, published 2005).
“And” between values parts separate entries of the source, which are not always exact repeats. Equal entries are not always repeated.

Experiments:
Format in all cases: physicochemical
[1] = Fine particle fraction, single-dose Acu-Breathe inhaler into Andersen impactor; settings: 30 L/min, IDL data, FIG. 1; result set to zero
Procedure: These blisters are actuated into the Andersen 8-stage cascade impactor at flow rates ranging from 30 to 75 L/min with a glass twin-impinger throat. Stages 1-5 of the Andersen impactor are rinsed together to obtain an estimate of the fine particle fraction. Pooling the drug collected from multiple stages into one assay make the method much more sensitive. […] Using a carrier with a larger particle size typically improves the aerosol properties of micronized drug substances.
Approximately 25 mg of this powder is filled and sealed in foil blisters and aerosolized using the single-dose device at 60 L/min. The aerosol results for this preliminary powder blend are satisfactory for a respiratory drug delivery system. […] This diameter is smaller than the median diameter measured for micronized DHEA-S.dihydrate by laser diffraction. Irregularly shaped particles can behave aerodynamically as smaller particles since their longest dimension tends to align with the air flow field. Therefore, it is common to see a difference between the two methods. Diffraction measurements are a quality control test for the input material while cascade impaction is a quality control test for the finished product.

[2] = Respirable dose studies, Andersen cascade impactor; settings: 90 L/min
Procedure: The respirable dose (respirable fraction) studies were performed using a standard sampler cascade impactor (Andersen), consisting of an inlet cone (an impactor pre-separator was substituted here), 9 stages, 8 collection plates, and a backup filter within 8 aluminum stages held together by 3 spring clamps and gasket O-ring seals, where each impactor stage contains multiple precision drilled orifices. When air is drawn through the sampler, multiple jets of air in each stage direct any airborne particles toward the surface of the collection plate for that stage. The size of the jets is constant for each stage, but is smaller in each succeeding stage. Whether a particle is impacted on any given stage depends upon its aerodynamic diameter. The range of particle sizes collected on each stage depends upon on the jet velocity of the stage, and the cut-off point of the previous stage. Any particle not collected on the first stage follows the air stream around the edge of the plate to the next stage, where it is either impacted or passed on to the succeeding stage, and so on, until the velocity of the jet is sufficient for impaction. To prevent particle bounce during the cascade impactor test, the individual impactor plates were coated with a hexane-grease (high vacuum) solution (100:1 ratio). As noted above, the particle size cut-off points on the impactor plates changed at different airflow rates. […] The set-up recommended by the United States Phamacopeia for testing dry powder inhalers consists of a mouthpiece adapter (silicone in this case) attached to a glass throat (modified 50 ml round-bottom flask) and a glass distal pharynx (induction port) leading top the pre-separator and Andersen sampler. The pre-separator sample includes washings from the mouthpiece adaptor, glass throat, distal glass pharynx and pre-separator. 5 ml acetonitrile:water (1:1 ratio) solvent was placed in the pre-separator before performing the cascade impactor experiment, that were performed in duplicate with 3 different dry powder inhaler devices and at 3 airflow rates, 30, 60 and 90 L/min. The drug collected on the cascade impactor plates were assayed by the HPLC, and a drug mass balance was performed for each Diskhaler and multi-dose cascade impactor experiment consisting of determining the amount of drug left in the blister, the amount of drug remaining in the device (Diskhaler only), the non-respirable amount of the dose retained on the silicone rubber mouth piece adaptor, glass throat, glass distal pharynx and pre-separator, all combined into one sample, and the respirable dose, i.e. Stage 2 through filter impactor plates for airflow rates of 30 and 60 L/min and Stages 1 through filter impactor plates for 90 L/min experiments.
The cascade impactor experiments were conducted as described in Example 3. Four cascade impactor experiments were done, three with a IDL multi-dose device and one with a Diskhaler, all at 90 L/min. […] However, the % respirable dose was still low. This was likely the result of moisture absorption of the anhydrous form.

[3] = HPLC analysis of drug degradation during jet milling; settings: single-pass and double-pass vs unmilled standard, HPLC peak area
Procedure: Two vials (A; single-pass; 150 mg) and (B double-pass; 600 mg) of the micronized drug were available for determining drug degradation during jet milling micronization. […] The chromatographic peak area for the HPLC assay of the unmilled drug standard solution (10 mg/ml) gave a value of 23,427. […] The chromatographic peak areas for vials A and B were 11,979 and 11,677, respectively.

[4] = Solid-state stability with and without lactose (DHEA formed, HPLC)
From the text: These conditions were used to stress the formulation in order to predict its long-term stability results. […] This color change is accompanied by a significant change in the chromatogram as shown in. FIG. 1. The primary degradant is DHEA. […] The materials on accelerated storage become more cohesive with time as evidenced by clumping during sample weighing for chemical analysis. […] This is a considerable disadvantage since lactose is the most commonly used inhalation excipient for dry powder formulations. Continuing with the virtually anhydrous form would mean limiting formulations to neat powder or undertaking more comprehensive safety studies to use a novel excipient.

[5] = Multi-dose, oven dried drug for 80 minutes
[6] = Multi-dose, oven dried drug for 20 hours

C[C@]12CC[C@H](OS(=O)(=O)[O-])CC1=CC[C@@H]1[C@@H]2CC[C@]2(C)C(=O)CC[C@@H]12.[Na+] [Anhydrous DHEA-S]
fine particle fraction [1]: no detectable mass entered the impactor
respirable dose of spray-dried compared to micronized anhydrous DHEA-S [2]: two-fold increase
Blister [2, 5]: 2.8%
Mass Balance [2, 5]: 100.0%
Preseparator [2, 5]: 78.7%
Respirable Dose [2, 5]: 4.6%
Device ([2]; Multi-dose, oven dried drug for 80 minutes, by difference): 13.9 *^a %
Blister [2, 6]: 5.0%
Mass Balance [2, 6]: 100.0%
Preseparator [2, 6]: 55.9%
Respirable Dose [2, 6]: 1.2%
Device ([2]; Multi-dose, oven dried drug for 20 hours, by difference): 37.9 *^a %
Blister ([2]; jet-milled drug, Diskhaler): 6.6% and 10.1%
Device ([2]; jet-milled drug, Diskhaler): 22.1% and 13.3%
Mass Balance ([2]; jet-milled drug, Diskhaler): 104.3% and 86.0%
Preseparator ([2]; jet-milled drug, Diskhaler): 72.7% and 60.2%
Respirable Dose ([2]; jet-milled drug, Diskhaler): 2.9% and 2.4%
Blister ([2]; jet-milled drug, Multi-dose): 3.8% and 3.9%
Mass Balance ([2]; jet-milled drug, Multi-dose): 100.0%
Preseparator ([2]; jet-milled drug, Multi-dose): 73.3% and 65.8%
Respirable Dose ([2]; jet-milled drug, Multi-dose): 3.6% and 3.8%
Device ([2]; jet-milled drug, Multi-dose, retention obtained by difference): 19.3 *^a % and 26.5 *^a %
Blisters ([2]; spray-dried drug, Diskhaler): 29.0%
Device ([2]; spray-dried drug, Diskhaler): 11.2%
Preseparator ([2]; spray-dried drug, Diskhaler): 56.8%
Respirable Dose ([2]; spray-dried drug, Diskhaler): 5.6%
degradation of the drug during jet milling micronization [3]: no detectable degradation
DHEA % formed ([4]; 50° C., 1 week): 9.817%
DHEA % formed ([4]; 50° C., 2 weeks): 14.954%
DHEA % formed ([4]; 50° C., 4 weeks): 20.171%
DHEA % formed ([4]; Control: neat, sealed vial, 25° C., 1 week): 2.694%
DHEA % formed ([4]; Control: neat, sealed vial, 25° C., 2 weeks): 2.370%
DHEA % formed ([4]; Control: neat, sealed vial, 25° C., 4 weeks): 2.666%
DHEA % formed ([4]; Control: neat, sealed vial, 25° C., first time column (head empty, time 0)): 2.774%
